# Experimental data reported in patent publication US20100267561A1, “HERBICIDAL PYRIDAZINONE DERIVATIVES” (priority 2007, published 2010).
# Read-outs that look alike come from different tables or passages of the source.
# Columns and labels:
# Type in all cases: in vivo
# [1] = test system: johnsongrass (Sorghum halepense); assay: Test B pre-/postemergence plant response; details: for pest or weed control at 31 g/ha / pest or weed control at 62 g/ha: Sorghum halepense, read-out: Plant response rating, Johnsongrass; for pest or weed control at 31 g/ha: 31 g ai/ha; for pest or weed control at 62 g/ha: 62 g ai/ha, 100 complete control
# Procedure, shortened: (§1)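 Preemergence and postemergence (plants 2-18 cm, 1- to 4-leaf stage) applications used test chemicals in a non-phytotoxic solvent with surfactant. Plants were held in a greenhouse 13 to 15 days, then rated visually against controls on a 0-100 scale (0 no effect, 100 complete control).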
# [2] = test system: catchweed bedstraw (Galium aparine); assay: Test B pre-/postemergence plant response; details: Preemergence
# Procedure, shortened: as §1
# [3] = test system: large crabgrass (Digitaria sanguinalis); assay: Test B pre-/postemergence plant response; details: for pest or weed control at 31 g/ha: 31 g ai/ha; for pest or weed control at 62 g/ha: 62 g ai/ha, 100 complete control
# Procedure, shortened: as §1
# [4] = test system: blackgrass (Alopecurus myosuroides); assay: Test B pre-/postemergence plant response; details: for pest or weed control at 31 g/ha: 31 g ai/ha; for pest or weed control at 62 g/ha: 62 g ai/ha, 100 complete control
# Procedure, shortened: as §1
# [5] = test system: yellow nutsedge (Cyperus esculentus); assay: Test B pre-/postemergence plant response; details: for pest or weed control at 31 g/ha / pest or weed control at 62 g/ha: Cyperus, read-out: Plant response rating, Nutsedge, Yellow; for pest or weed control at 31 g/ha: 31 g ai/ha; for pest or weed control at 62 g/ha: 62 g ai/ha, 100 complete control
# Procedure, shortened: as §1
# [6] = test system: cocklebur (Xanthium strumarium); assay: Test B pre-/postemergence plant response; details: for pest or weed control at 31 g/ha: 31 g ai/ha; for pest or weed control at 62 g/ha: 62 g ai/ha, 100 complete control
# Procedure, shortened: as §1
# [7] = test system: winter barley (Hordeum vulgare); assay: Test B postemergence plant response; details: for Plant response rating, Barley: Postemergence, scale 0 to 100, 0 no effect, 100 complete control
# Procedure, shortened: (§2)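 Compounds applied after emergence to 2–18 cm plants; response read visually 13–15 days later on 0 (none) to 100 (complete control); a dash marks no result.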
# [8] = test system: windgrass (Apera spica-venti); assay: Test B postemergence plant response; details: for Windgrass plant response rating: postemergence, 0-100 scale; for Plant response rating, Windgrass: Postemergence
# Procedure, shortened: as §2
# [9] = 8 g ai/ha, postemergence, 0-100 scale
# [10] = 16 g ai/ha, postemergence, 0-100 scale
# [11] = Preemergence, 8 g ai/ha, scale 0 to 100 (0 no effect, 100 complete control)
# [12] = Preemergence, 16 g ai/ha, scale 0 to 100
# [13] = post-emergence, Postemergence, scale 0 to 100
# [14] = post-emergence, Postemergence, scale 0 to 100, 0 no effect
# [15] = pre-emergence, Preemergence, scale 0 to 100 (0 no effect, 100 complete control)
# [16] = pre-emergence, Preemergence, 0 to 100 scale, 0 no effect
structure (smiles),measurement,setting,value
"Cc1cc(-c2ccc(Br)cc2)nn1-c1c(O)cn[nH]c1=O [Compound 78, 4-[3-(4-bromophenyl)-5-methyl-1H-pyrazol-1-yl]-5-hydroxy-3(2H)-pyridazinone]",Johnsongrass plant response rating,[1]; [9],75
same,Johnsongrass plant response rating,[1]; [10],100
same,Johnsongrass plant response rating,[1]; [11],60
same,Johnsongrass plant response rating,[1]; [12],80
same,pest or weed control at 31 g/ha,[1]; [13],100%
same,pest or weed control at 62 g/ha,[1]; [14],100%
same,pest or weed control at 31 g/ha,[1]; [15],95%
same,pest or weed control at 62 g/ha,[1]; [16],100%
same,pest or weed control at 31 g/ha,"[2]; Galium aparine, pre-emergence, 31 g ai/ha, scale 0 to 100 (0 no effect, 100 complete control), read-out: Plant response rating, Galium",0%
same,pest or weed control at 62 g/ha,"[2]; Galium aparine, pre-emergence, 62 g ai/ha, 0 to 100 scale, 0 no effect, 100 complete control, read-out: Plant response rating, Galium",0%
same,Galium plant response rating,"[2]; 8 g ai/ha, scale 0 to 100 (0 no effect, 100 complete control)",0
same,Galium plant response rating,"[2]; 16 g ai/ha, scale 0 to 100",0
same,"Crabgrass, Large plant response rating",[3]; [9],98
same,pest or weed control at 16 g/ha,"[3]; Digitaria sanguinalis, post-emergence, Postemergence, 16 g ai/ha, scale 0 to 100, read-out: Plant response rating, Crabgrass, Large",100%
same,pest or weed control at 31 g/ha,"[3]; Digitaria sanguinalis, post-emergence, Postemergence, scale 0 to 100, read-out: Plant response rating, Crabgrass, Large",100%
same,pest or weed control at 62 g/ha,"[3]; Digitaria sanguinalis, post-emergence, Postemergence, scale 0 to 100, 0 no effect, read-out: Plant response rating, Crabgrass, Large",100%
same,pest or weed control at 31 g/ha,"[3]; Digitaria sanguinalis, pre-emergence, Preemergence, scale 0 to 100 (0 no effect, 100 complete control), read-out: Plant response rating, Crabgrass, Large",100%
same,pest or weed control at 62 g/ha,"[3]; Digitaria sanguinalis, pre-emergence, Preemergence, 0 to 100 scale, 0 no effect, read-out: Plant response rating, Crabgrass, Large",100%
same,"Crabgrass, Large plant response rating",[3]; [11],15
same,"Crabgrass, Large plant response rating",[3]; [12],95
same,Blackgrass plant response rating,[4]; [9],70
same,pest or weed control at 16 g/ha,"[4]; Alopecurus myosuroides, post-emergence, Postemergence, 16 g ai/ha, scale 0 to 100, read-out: Plant response rating, Blackgrass",95%
same,pest or weed control at 31 g/ha,"[4]; Alopecurus myosuroides, post-emergence, Postemergence, scale 0 to 100, read-out: Plant response rating, Blackgrass",100%
same,pest or weed control at 62 g/ha,"[4]; Alopecurus myosuroides, post-emergence, Postemergence, scale 0 to 100, 0 no effect, read-out: Plant response rating, Blackgrass",100%
same,pest or weed control at 31 g/ha,"[4]; Alopecurus myosuroides, pre-emergence, Preemergence, scale 0 to 100 (0 no effect, 100 complete control), read-out: Plant response rating, Blackgrass",100%
same,pest or weed control at 62 g/ha,"[4]; Alopecurus myosuroides, pre-emergence, Preemergence, 0 to 100 scale, 0 no effect, read-out: Plant response rating, Blackgrass",100%
same,Blackgrass plant response rating,[4]; [11],70
same,Blackgrass plant response rating,[4]; [12],90
same,"Nutsedge, Yellow plant response rating",[5]; [9],0
same,"Nutsedge, Yellow plant response rating",[5]; [10],0
same,pest or weed control at 31 g/ha,[5]; [13],0%
same,pest or weed control at 62 g/ha,[5]; [14],0%
same,pest or weed control at 31 g/ha,[5]; [15],0%
same,pest or weed control at 62 g/ha,[5]; [16],0%
same,"Nutsedge, Yellow plant response rating",[5]; [11],0
same,"Nutsedge, Yellow plant response rating",[5]; [12],0
same,Cocklebur plant response rating,[6]; [9],0
same,Cocklebur plant response rating,[6]; [11],0
same,Cocklebur plant response rating,[6]; [12],0
same,pest or weed control at 16 g/ha,"[6]; Xanthium strumarium, post-emergence, Postemergence, 16 g ai/ha, scale 0 to 100, read-out: Plant response rating, Cocklebur",0%
same,pest or weed control at 31 g/ha,"[6]; Xanthium strumarium, post-emergence, Postemergence, scale 0 to 100, read-out: Plant response rating, Cocklebur",0%
same,pest or weed control at 62 g/ha,"[6]; Xanthium strumarium, post-emergence, Postemergence, scale 0 to 100, 0 no effect, read-out: Plant response rating, Cocklebur",0%
same,pest or weed control at 31 g/ha,"[6]; Xanthium strumarium, pre-emergence, Preemergence, scale 0 to 100 (0 no effect, 100 complete control), read-out: Plant response rating, Cocklebur",0%
same,pest or weed control at 62 g/ha,"[6]; Xanthium strumarium, pre-emergence, Preemergence, 0 to 100 scale, 0 no effect, read-out: Plant response rating, Cocklebur",0%
same,Barley plant response rating,[7]; [9],45
same,"Plant response rating, Barley",[7]; 16 g ai/ha,90
same,"Plant response rating, Barley",[7]; 31 g ai/ha,95
same,"Plant response rating, Barley",[7]; 62 g ai/ha,95
same,Windgrass plant response rating,[8]; 8 g ai/ha,40
same,Windgrass plant response rating,[8]; 16 g ai/ha,50
same,"Plant response rating, Windgrass","[8]; 31 g ai/ha, scale 0 to 100",60
same,"Plant response rating, Windgrass","[8]; 62 g ai/ha, scale 0 to 100, 0 no effect, 100 complete control",80
